Assay results: paper PMC11763264, “Antibacterial and Antifungal Activities of Linear and Cyclic Peptides Containing Arginine, Tryptophan, and Diphenylalanine” (Antibiotics, 2025)
Converted amounts (≈) assume the structure as drawn. Non-standard residues stand in square brackets, D forms with d. Residues, ends and D or L forms follow the SMILES beside them. Dip = N[C@H](C(=O)O)C(c1ccccc1)c1ccccc1

Legend:
Test in all cases: microbe, parasite or virus in culture
C. albicans (ATCC 60193) = assay type: cell-based, Candida albicans
Experimental: (§1) The antifungal activity of all ten synthesized linear and cyclic peptides was evaluated against C. albicans (ATCC 60193), C. parapsilosis (ATCC 22019), and A. fumigatus (AF-293). Fluconazole and amphotericin B were used as positive controls for this study. The MIC was determined at concentrations in wells with no visible fungal growth.
(§2) In this study, C. albicans and C. parapsilosis were cultured on Yeast Peptone Dextrose (YPD) agar containing 1% w/v yeast extract, 2% w/v peptone, 2% w/v D-glucose, and 1.5% agar. A single colony from the agar was selected and cultured in Tryptone soy broth supplemented with 0.1% D-glucose, then incubated for 24 h at 37 °C. The cells were washed twice with PBS by centrifugation at 2000 RPM for 5 min. The pellet was resuspended in 5 mL of PBS, diluted in RPMI 1640 with L-glutamine, supplemented with 2% D-glucose, and the pH adjusted using HEPES buffer. The suspension was then incubated for 50 min at 35 °C to achieve a final cell concentration of 10^6 cells/mL.
(§3) Peptide concentrations of 50, 25, 12.5, 6.25, and 3.1 μg/mL were tested in triplicate and repeated twice. Each well of a 96-well plate was inoculated with the prepared inoculum suspension, which was diluted with RPMI media to a final volume of 200 μL per well. The control well received the same inoculum without any compound. The plates were incubated for 24 h at 37 °C. Fungal and microbial growth were visually observed in the control wells, and the minimum inhibitory concentration (MIC) was determined as the lowest concentration at which no growth was detected in the wells. Amphotericin B was used as a standard antifungal drug.

[1] = test system: C. parapsilosis (ATCC 22019); assay type: cell-based, Candida parapsilosis
Experimental: as §1, §2, §3

A. fumigatus (Af-293) = assay type: cell-based, Aspergillus fumigatus; details: RPMI 1640 with 2% D-glucose, HEPES, 10^6 cells/mL, 24 and 48 h at 35 °C, no visible growth, triplicates, repeated twice
Experimental: as §1
A. fumigatus (Af-293) was cultured on Sabouraud dextrose agar (SDA) (Lot #3431660, Oxoid) for 48–72 h at 35 °C to obtain fresh and mature colonies which reached the proper sporulation then used to prepare the inoculum. The colonies were covered with Phosphate-Buffered Saline (PBS) containing 0.025% Tween-20, scraped from the plate, and carefully collected into a sterile tube. The suspension was centrifuged at 3000 RPM for 5 min after the separation between conidia and hyphae. The supernatant was discarded, and the pellet was resuspended in 5 mL of PBS.
Peptide concentrations of 50, 25, 12.5, 6.25, and 3.1 μg/mL were tested in triplicate. Each well of a 96-well plate was inoculated with the prepared inoculum suspension, which was diluted with RPMI 1640 medium containing L-glutamine, supplemented with 2% D-glucose, and the pH adjusted using HEPES buffer. The plates were incubated for 50 min at 35 °C to achieve a final cell concentration of 10^6 cells/mL. The control wells contained the same inoculum without any compound. The plates were then incubated for 24 and 48 h at 35 °C. Fungal growth was visualized, and the minimum inhibitory concentration (MIC) was determined as the lowest peptide concentration, where no growth was observed.

MRSA (ATCC BAA-1556) = assay type: cell-based, Methicillin-Resistant Staphylococcus aureus; details: ATCC BAA-1556, 24 h
Experimental: (§4) The antibacterial activity of all ten synthesized linear and cyclic peptides was evaluated against MRSA (ATCC BAA-1556), S. aureus (ATCC 29213), E. faecium (ATCC 700221), S. pneumoniae (ATCC 51938), E. faecalis (ATCC 29212), B. subtilis (ATCC-6633), K. pneumoniae (ATCC BAA-1705), P. aeruginosa (ATCC 27883), and E. coli (ATCC 25922). Meropenem and daptomycin were used as positive controls for this study. Certain peptides are marked as “NT” (not tested) against specific bacterial strains based on initial screening data. […] The MIC was determined by micro-broth dilution protocol, where the minimal concentrations were determined to be in wells with no visible bacterial growth.
(§5) All bacterial experiments were carried out in a laminar flow hood (Labconco, Kansas City, MO, USA). The bacterial strains were cultured following the guidelines set by the Clinical Laboratory Standards Institute (CLSI). Antibacterial assays were performed using a standard microtiter dilution method as described in previous studies. The minimum inhibitory concentration (MIC) refers to the lowest peptide concentration that inhibits bacterial growth in wells with no visible bacterial growth. MIC was determined by micro-broth dilution. Bacteria were cultured overnight in 6 mL of Luria Broth (LB). A stock solution of the peptide was prepared in water and DMSO, and a test compound solution with a concentration of 256 µg/mL was made in LB. Meropenem, with a solubility of 8 mg/mL, was prepared as a stock solution at 4 mg/500 µL. An aliquot of the overnight bacteria culture was diluted in normal saline (NS, 1 mL) until achieving a 0.5 McFarland turbidity (1.5 × 10^8 bacterial cell CFU/mL). A 0.5 McFarland compared solution (60 µL) was added to Mueller Hinton Broth (MH) 8940 µL to generate a 1/150 dilution. A 200 µL test compound solution was added to the first well of a 96-well plate, and the remaining wells (2–12) were filled with 100 µL of MH media using a multi-channel pipette from a sterile reservoir. A concentration of […] of the tested peptides was prepared from a stock solution of the samples for testing in Muller−Hinton broth MH media. Peptides stock solution was dissolved in 5% DMSO in water, and the final concentration of DMSO in the first well of assay plate was 2.5% DMSO/H2O and diluted across the assay plate.
(§6) A 100 µL sample from well 1 was pipetted into well 2, and the solution was mixed thoroughly by pipetting up and down. Next, 100 µL was transferred from well 2 to well 3, followed by thorough mixing. This 2-fold serial dilution process continued through well 11, with no additions made to well 12. The final 100 µL from well 11 was discarded. After completing the serial dilution, each well (1–12) contained 100 µL of solution. The bacterial culture in MH media was vortexed and transferred to a sterile reservoir, from which 100 µL was added to each well using a 12-channel pipette. (Note: The dilutions were further diluted upon adding the bacterial solution; for example, the concentration in well 1 started at […] after the addition of the bacterial culture.) The plates were incubated overnight at 37 °C for 24 h. All experiments were performed in triplicate and repeated twice, with controls consisting of bacteria in MH media and positive controls of daptomycin or meropenem.

S. aureus (ATCC 29213) = assay type: cell-based, Staphylococcus aureus; details: ATCC 29213, 24 h
Experimental: as §4, §5, §6

E. faecium (ATCC 700221) = assay type: cell-based, Enterococcus faecium; details: ATCC 700221, 24 h
Experimental: as §4, §5, §6

[2] = test system: S. pneumoniae (ATCC 51938); assay type: cell-based, Streptococcus pneumoniae; details: ATCC 51938, 24 h
Experimental: as §4, §5, §6

E. faecalis (ATCC 29212) = assay type: cell-based, Enterococcus faecalis; details: ATCC 29212, 24 h
Experimental: as §4, §5, §6

B. subtilis (ATCC-6633) = assay type: cell-based, Bacillus subtilis; details: ATCC-6633, 24 h
Experimental: as §4, §5, §6

[3] = test system: K. pneumoniae (ATCC BAA-1705); assay type: cell-based, Klebsiella pneumoniae; details: ATCC BAA-1705, 24 h
Experimental: as §4, §5, §6

[4] = test system: P. aeruginosa (ATCC 27883); assay type: cell-based, Pseudomonas aeruginosa; details: ATCC 27883, 24 h
Experimental: as §4, §5, §6

E. coli (ATCC 25922) = assay type: cell-based, Escherichia coli; details: ATCC 25922, 24 h
Experimental: as §4, §5, §6

[5] = Candida albicans, ATCC60193, RPMI 1640 with 2% D-glucose, HEPES, 10^6 cells/mL, 24 h at 37 °C, no visible growth, triplicates, repeated twice
[6] = Lodderomyces parapsilosis, ATCC22019, RPMI 1640 with 2% D-glucose, HEPES, 10^6 cells/mL, 24 h at 37 °C, no visible growth, triplicates, repeated twice

Structure (SMILES) | MIC (C. albicans (ATCC 60193); [5]) [µM] | MIC [1, 6] [µM] | MIC (A. fumigatus (Af-293); Aspergillus fumigatus) [µM] | MIC (MRSA (ATCC BAA-1556)) [µM] | MIC (S. aureus (ATCC 29213)) [µM] | MIC (E. faecium (ATCC 700221)) [µM] | MIC [2] [µM] | MIC (E. faecalis (ATCC 29212)) [µM] | MIC (B. subtilis (ATCC-6633)) [µM] | MIC (A. fumigatus (Af-293)) [µM] | MIC [3] [µM] | MIC [4] [µM] | MIC (E. coli (ATCC 25922)) [µM] | MIC (C. albicans (ATCC 60193); ATCC 60193, 24 h) [µM] | MIC ([1]; ATCC 22019, 24 h) [µM]
C[C@@H]1[C@H](O)[C@@H](C)/C=C/C=C/C=C/C=C/C=C/C=C/C=C/[C@H](O[C@@H]2O[C@H](C)[C@@H](O)[C@H](N)[C@@H]2O)C[C@@H]2O[C@](O)(C[C@@H](O)C[C@@H](O)[C@H](O)CC[C@@H](O)C[C@@H](O)CC(=O)O[C@H]1C)C[C@H](O)[C@H]2C(=O)O [Amphotericin B, reference compound] | 0.42 (≈ 0.388 µg/mL) | 0.42 (≈ 0.388 µg/mL) | 0.84 (≈ 0.776 µg/mL) | – | – | – | – | – | – | – | – | – | – | – | –
CCCCCCCCCC(=O)N[C@@H](Cc1c[nH]c2ccccc12)C(=O)N[C@H](CC(N)=O)C(=O)N[C@@H](CC(=O)O)C(=O)N[C@@H]1C(=O)NCC(=O)N[C@@H](CCCN)C(=O)N[C@@H](CC(=O)O)C(=O)N[C@H](C)C(=O)N[C@@H](CC(=O)O)C(=O)NCC(=O)N[C@H](CO)C(=O)N[C@@H]([C@H](C)CC(=O)O)C(=O)N[C@@H](CC(=O)c2ccccc2N)C(=O)O[C@@H]1C [Daptomycin, reference compound] | – | – | – | 1.2 (≈ 1.94 µg/mL) | 0.62 (≈ 1 µg/mL) | 1.2 (≈ 1.94 µg/mL) | 4.9 (≈ 7.94 µg/mL) | 9.87 (≈ 16 µg/mL) | 0.3 (≈ 0.486 µg/mL) | – | – | – | – | – | –
OC(Cn1cncn1)(Cn1cncn1)c1ccc(F)cc1F [Fluconazole, reference compound] | 4.9 (≈ 1.5 µg/mL) | 3.3 (≈ 1.01 µg/mL) | > 209 | – | – | – | – | – | – | >209 | – | – | – | – | –
N=C(N)NCCC[C@@H]1NC(=O)[C@H](Cc2c[nH]c3ccccc23)NC(=O)[C@H](CCCNC(=N)N)NC(=O)[C@H](Cc2c[nH]c3ccccc23)NC(=O)[C@H](CCCNC(=N)N)NC(=O)[C@H](C(c2ccccc2)c2ccccc2)NC(=O)[C@H](CCCNC(=N)N)NC(=O)[C@H](C(c2ccccc2)c2ccccc2)NC(=O)[C@H](CCCNC(=N)N)NC(=O)[C@H](Cc2c[nH]c3ccccc23)NC1=O [[(DipR)2(WR)3]] (cyclo([Dip]R[Dip]RWRWRWR)) | – | – | – | 3.1 (≈ 5.54 µg/mL) | – | – | – | – | – | 1.7 (≈ 3.04 µg/mL) | 12.5 (≈ 22.3 µg/mL) | 25 (≈ 44.7 µg/mL) | 12.5 (≈ 22.3 µg/mL) | 7.0 (≈ 12.5 µg/mL) | 7.0 (≈ 12.5 µg/mL)
N=C(N)NCCC[C@@H]1NC(=O)[C@H](Cc2c[nH]c3ccccc23)NC(=O)[C@H](CCCNC(=N)N)NC(=O)[C@H](C(c2ccccc2)c2ccccc2)NC(=O)[C@H](CCCNC(=N)N)NC(=O)[C@H](C(c2ccccc2)c2ccccc2)NC(=O)[C@H](CCCNC(=N)N)NC(=O)[C@H](C(c2ccccc2)c2ccccc2)NC(=O)[C@H](CCCNC(=N)N)NC(=O)[C@H](Cc2c[nH]c3ccccc23)NC1=O [[(DipR)3(WR)2]] (cyclo([Dip]R[Dip]R[Dip]RWRWR)) | – | – | – | 3.1 (≈ 5.65 µg/mL) | – | – | – | – | – | 1.7 (≈ 3.1 µg/mL) | 12.5 (≈ 22.8 µg/mL) | 25 (≈ 45.6 µg/mL) | 12.5 (≈ 22.8 µg/mL) | 6.8 (≈ 12.4 µg/mL) | 6.8 (≈ 12.4 µg/mL)
N=C(N)NCCC[C@@H]1NC(=O)[C@H](Cc2c[nH]c3ccccc23)NC(=O)[C@H](CCCNC(=N)N)NC(=O)[C@H](C(c2ccccc2)c2ccccc2)NC(=O)[C@H](CCCNC(=N)N)NC(=O)[C@H](C(c2ccccc2)c2ccccc2)NC(=O)[C@H](CCCNC(=N)N)NC(=O)[C@H](C(c2ccccc2)c2ccccc2)NC(=O)[C@H](CCCNC(=N)N)NC(=O)[C@H](C(c2ccccc2)c2ccccc2)NC1=O [[(DipR)4(WR)]] (cyclo([Dip]R[Dip]R[Dip]R[Dip]RWR)) | – | – | – | 3.1 (≈ 5.77 µg/mL) | – | – | – | – | – | 1.7 (≈ 3.16 µg/mL) | 25 (≈ 46.5 µg/mL) | 25 (≈ 46.5 µg/mL) | 12.5 (≈ 23.3 µg/mL) | 6.7 (≈ 12.5 µg/mL) | 6.7 (≈ 12.5 µg/mL)
N=C(N)NCCC[C@@H]1NC(=O)[C@H](Cc2c[nH]c3ccccc23)NC(=O)[C@H](CCCNC(=N)N)NC(=O)[C@H](Cc2c[nH]c3ccccc23)NC(=O)[C@H](CCCNC(=N)N)NC(=O)[C@H](C(c2ccccc2)c2ccccc2)NC(=O)[C@H](CCCNC(=N)N)NC(=O)[C@H](Cc2c[nH]c3ccccc23)NC(=O)[C@H](CCCNC(=N)N)NC(=O)[C@H](Cc2c[nH]c3ccccc23)NC1=O [[(DipR)(WR)4]] (cyclo([Dip]RWRWRWRWR)) | – | – | – | 3.1 (≈ 5.42 µg/mL) | – | – | – | – | – | 1.8 (≈ 3.15 µg/mL) | 12.5 (≈ 21.9 µg/mL) | 25 (≈ 43.7 µg/mL) | 12.5 (≈ 21.9 µg/mL) | 14.3 (≈ 25 µg/mL) | 7.1 (≈ 12.4 µg/mL)
